Entries after “also recorded” stand apart in the source; their conditions may differ. Where two headings read alike, the source gives them in different places.
Tests used:
[1] = Cytotoxicity assay (MTS tetrazolium) on Vero 76 cells; conditions: African green monkey
SARS-CoV-2 = assay: microbe, parasite or virus in culture; assay type: cell-based; conditions: for inhibition of SARS-CoV-2 by monoterpenes (in words): 72 h incubation
in vitro = conditions: African green monkey
[2] = Severe acute respiratory syndrome coronavirus 2, Vero 76, 72 h, monoterpenes, infected Vero 76 cells, 0.02 MOI, 72 h, MTT, tested 1,000–4.91 μM, mean ± SD, read-out: EC50 SARS-Cov2
[3] = Severe acute respiratory syndrome coronavirus 2, Vero 76, 72 h, read-out: EC50 SARS-Cov2, monoterpenes, infected Vero 76 cells, 0.02 MOI, 72 h, MTT, tested 1,000–4.91 μM, mean ± SD
[4] = read-out: EC50 SARS-Cov2, monoterpenes, infected Vero 76 cells, 0.02 MOI, 72 h, MTT, tested 1,000–4.91 μM, mean ± SD
[5] = monoterpenes, infected Vero 76 cells, 0.02 MOI, 72 h, MTT, tested 1,000–4.91 μM, mean ± SD, read-out: EC50 SARS-Cov2

| Structure (SMILES) | IC50 [1] [µM] | EC50 (SARS-CoV-2; [2]) [µM] | inhibition of SARS-CoV-2 by monoterpenes (in words) (SARS-CoV-2; infected Vero 76 cells) | IC50 (in vitro) [µM] | also measured |
| --- | --- | --- | --- | --- | --- |
| Cc1ccc(C(C)C)cc1 [p-Cymene] | > 1000 | > 1000 | did not inhibit the SARS-CoV-2 at any significant rate; also recorded: Absence of activity |  |  |
| CC1CCC(C(C)C)C(O)C1 (centres unmarked) [Menthol] | > 1000 | > 1000 | did not inhibit the SARS-CoV-2 at any significant rate; also recorded: Absence of activity |  |  |
| C=CC(C)(O)CCC=C(C)C (centres unmarked) [Linalool] |  |  | did not inhibit the SARS-CoV-2 at any significant rate; also recorded: Absence of activity | > 1000 | EC50 (SARS-CoV-2; [3]): > 1000 µM |
| Cc1ccc(C(C)C)c(O)c1 [Thymol] | 509 ± 31.5 |  | limited antiviral activity |  | rate of SARS-Cov-2 inhibition (SARS-CoV-2; infected Vero 76 cells, 72 h, concentration not given): 58.54 ± 10.45% |
| CC1=CC[C@@H](C(C)(C)O)CC1 [α-Terpineol] | > 1000 | > 1000 | did not inhibit the SARS-CoV-2 at any significant rate; also recorded: Absence of activity |  |  |
| CC1=CCC(O)(C(C)C)CC1 (centres unmarked) [Terpinen-4-ol] | > 1000 | > 1000 | did not inhibit the SARS-CoV-2 at any significant rate; also recorded: Absence of activity |  |  |
| Cc1ccc(C(C)C)cc1O [Carvacrol] |  |  |  | 455 ± 31.1 | EC50 (SARS-CoV-2; [3]): 86.5 ± 12.7 µM; EC50 (SARS-CoV-2; [4]): 80.2 ± 6.07 µM; EC50 (SARS-CoV-2; read-out: EC50 SARS-Cov2, monoterpenes, infected Vero 76 cells, 0.02 MOI, 72 h, MTT, tested 1,000–4.91 μM, mean ± SD, listed as carvacrol): < 100 µM |
| C=C(C)C1CC=C(C)C(=O)C1 (centres unmarked) [Carvone] | > 1000 | 80.2 ± 6.07 |  |  | EC50 (SARS-CoV-2; [5]): 86.5 ± 12.7 µM |
| CC12CCC(CC1)C(C)(C)O2 [1,8-Cineol] | > 1000 | > 100 |  |  | EC50 (SARS-CoV-2; [5]): 129 ± 15 µM |
| Cc1coc2c1CCC(C)C2 (centres unmarked) [Menthofuran] |  |  |  | 506 ± 76.4 | EC50 (SARS-CoV-2; [3]): > 100 µM; EC50 (SARS-CoV-2; [4]): 154 ± 16.3 µM |
| CCN(CC)CCCC(C)Nc1ccnc2cc(Cl)ccc12 (centres unmarked) [Chloroquine, reference compound] |  | 7.57 ± 1.18 |  | > 1000 |  |
| CC(C)[C@@H]1CC[C@@H](C)CC1=O [Menthone] | > 1000 | > 1000 | did not inhibit the SARS-CoV-2 at any significant rate; also recorded: Absence of activity |  |  |
| CC(C)=C1CC[C@@H](C)CC1=O [Pulegone] |  |  |  | > 1000 | EC50 (SARS-CoV-2; [3]): > 100 µM; EC50 (SARS-CoV-2; [4]): 196 ± 17.1 µM |
| C=C(C)C1CC=C(C)CC1 (centres unmarked) [Limonene] | > 1000 |  |  |  | EC50 (SARS-CoV-2; Severe acute respiratory syndrome coronavirus 2, Vero 76, 72 h, read-out: EC50 SARS-Cov2): > 1000 µM |

Reference: publication PMC9108200, “Antiviral Activity of Selected Lamiaceae Essential Oils and Their Monoterpenes Against SARS-Cov-2” (Frontiers in Pharmacology, 2022)
